The source of these data is ChEMBL document CHEMBL3739345, “Design and synthesis of potent and selective inhibitors of BRD7 and BRD9 bromodomains” (Medchemcomm, 2015).

The target of assay [1] is Histone acetyltransferase p300 (Homo sapiens) (UniProt Q09472). Briefly: Binding affinity to human p300 assessed as change in melting temperature at 10 uM by differential scanning fluorimetry.
In assay [2] the target is Bromodomain adjacent to zinc finger domain protein 2A (Homo sapiens) (UniProt Q9UIF9). The experiment in a line: Binding affinity to human BAZ2A at 10 uM by differential scanning fluorimetry. On the technique in general: Differential scanning fluorimetry follows unfolding on heating by fluorescence.
The target in assay [3] is T1, Bromodomain adjacent to zinc finger domain protein 2B (Homo sapiens, UniProt Q9UIF8). The experiment in a line: Inhibition of human BAZ2B by alpha screen assay.
Assay [4] deals with CREB-binding protein (Homo sapiens) (UniProt Q92793). The experiment in a line: Binding affinity to human CBP assessed as change in melting temperature at 10 uM by differential scanning fluorimetry.
Assay [5] addresses Bromodomain-containing protein 4 (Homo sapiens, UniProt O60885). The experiment in a line: Binding affinity to human BRD4 assessed as change in melting temperature at 10 uM by differential scanning fluorimetry.
Assay [6] concerns the target T2, Bromodomain-containing protein 9 (Homo sapiens, UniProt Q9H8M2).
T2 sequence (Q9H8M2 whole entry): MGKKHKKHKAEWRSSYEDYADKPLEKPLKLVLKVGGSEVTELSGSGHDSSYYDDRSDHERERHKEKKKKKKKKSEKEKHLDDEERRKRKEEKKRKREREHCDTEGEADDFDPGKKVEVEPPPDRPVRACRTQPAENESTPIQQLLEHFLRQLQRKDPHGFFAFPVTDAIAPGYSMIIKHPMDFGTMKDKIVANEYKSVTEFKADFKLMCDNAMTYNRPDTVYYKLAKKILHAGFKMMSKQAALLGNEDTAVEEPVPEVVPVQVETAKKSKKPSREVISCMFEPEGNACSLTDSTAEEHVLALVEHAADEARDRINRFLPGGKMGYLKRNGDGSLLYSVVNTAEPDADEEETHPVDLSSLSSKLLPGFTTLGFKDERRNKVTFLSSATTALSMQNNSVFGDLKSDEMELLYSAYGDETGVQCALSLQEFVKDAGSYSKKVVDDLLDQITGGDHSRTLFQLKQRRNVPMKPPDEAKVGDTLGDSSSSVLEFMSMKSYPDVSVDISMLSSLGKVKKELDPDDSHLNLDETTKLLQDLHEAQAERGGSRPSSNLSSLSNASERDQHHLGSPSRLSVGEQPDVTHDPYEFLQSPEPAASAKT
Briefly: Binding affinity to human BRD9 by isothermal titration calorimetry.

The target of assay [7] is T1, Bromodomain adjacent to zinc finger domain protein 2B. The experiment in a line: Binding affinity to human BAZ2B at 10 uM by differential scanning fluorimetry.
The target in assay [8] is Nucleosome-remodeling factor subunit BPTF (Homo sapiens) (UniProt Q12830). Briefly: Binding affinity to human FALZ assessed as change in melting temperature at 10 uM by differential scanning fluorimetry.
Assay [9] addresses T3, Bromodomain-containing protein 7 (Homo sapiens) (UniProt Q9NPI1).
T3 sequence (whole entry): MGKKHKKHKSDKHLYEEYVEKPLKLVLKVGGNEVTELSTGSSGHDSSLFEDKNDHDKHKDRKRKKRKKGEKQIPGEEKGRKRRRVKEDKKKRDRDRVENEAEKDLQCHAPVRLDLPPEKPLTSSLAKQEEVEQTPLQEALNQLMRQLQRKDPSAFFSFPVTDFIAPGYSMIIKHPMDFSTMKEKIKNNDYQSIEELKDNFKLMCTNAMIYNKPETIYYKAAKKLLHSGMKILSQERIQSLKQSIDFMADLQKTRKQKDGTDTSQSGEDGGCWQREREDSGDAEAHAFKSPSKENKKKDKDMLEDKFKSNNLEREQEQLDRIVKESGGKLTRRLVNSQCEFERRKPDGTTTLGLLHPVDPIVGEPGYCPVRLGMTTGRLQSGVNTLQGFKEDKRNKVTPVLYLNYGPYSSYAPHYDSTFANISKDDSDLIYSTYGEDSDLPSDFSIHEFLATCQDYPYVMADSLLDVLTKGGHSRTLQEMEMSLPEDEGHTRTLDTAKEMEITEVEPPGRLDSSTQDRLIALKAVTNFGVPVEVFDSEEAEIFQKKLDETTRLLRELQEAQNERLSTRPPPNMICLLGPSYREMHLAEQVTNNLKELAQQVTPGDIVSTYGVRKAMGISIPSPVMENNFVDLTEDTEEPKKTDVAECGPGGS
Briefly: Binding affinity to human BRD7 assessed as change in melting temperature at 10 uM by differential scanning fluorimetry.

Assay [10] has as its target T4, Bromodomain-containing protein 9 (Homo sapiens) (UniProt Q9H8M2).
T4 sequence (whole entry): T2 sequence (Q9H8M2 whole entry)
The experiment in a line: Inhibition of human BRD9 expressed in U2OS cells assessed as inhibition of BRD9-chromatin association after 24 hrs by FRAP assay in presence of pan-HDAC inhibitor SAHA. The assay is classed as cell-based.

Assay [11] has as its target Bromodomain-containing protein 3 (Homo sapiens) (UniProt Q15059). The experiment in a line: Binding affinity to human BRD3 at 10 uM by differential scanning fluorimetry.

A word on the ΔTm: it is the change in melting temperature against a reference sample. One may read the IC50 as the concentration that inhibits the measured activity by half. In general, Kd refers to the constant that tells how readily two partners part at equilibrium. Lower therefore signals tighter binding.

The source made the active and inactive calls. The rule behind the calls is not given here. Bounds are passed on as bounds.

T1 sequence (Q9UIF8 whole entry, the tested form may be a part): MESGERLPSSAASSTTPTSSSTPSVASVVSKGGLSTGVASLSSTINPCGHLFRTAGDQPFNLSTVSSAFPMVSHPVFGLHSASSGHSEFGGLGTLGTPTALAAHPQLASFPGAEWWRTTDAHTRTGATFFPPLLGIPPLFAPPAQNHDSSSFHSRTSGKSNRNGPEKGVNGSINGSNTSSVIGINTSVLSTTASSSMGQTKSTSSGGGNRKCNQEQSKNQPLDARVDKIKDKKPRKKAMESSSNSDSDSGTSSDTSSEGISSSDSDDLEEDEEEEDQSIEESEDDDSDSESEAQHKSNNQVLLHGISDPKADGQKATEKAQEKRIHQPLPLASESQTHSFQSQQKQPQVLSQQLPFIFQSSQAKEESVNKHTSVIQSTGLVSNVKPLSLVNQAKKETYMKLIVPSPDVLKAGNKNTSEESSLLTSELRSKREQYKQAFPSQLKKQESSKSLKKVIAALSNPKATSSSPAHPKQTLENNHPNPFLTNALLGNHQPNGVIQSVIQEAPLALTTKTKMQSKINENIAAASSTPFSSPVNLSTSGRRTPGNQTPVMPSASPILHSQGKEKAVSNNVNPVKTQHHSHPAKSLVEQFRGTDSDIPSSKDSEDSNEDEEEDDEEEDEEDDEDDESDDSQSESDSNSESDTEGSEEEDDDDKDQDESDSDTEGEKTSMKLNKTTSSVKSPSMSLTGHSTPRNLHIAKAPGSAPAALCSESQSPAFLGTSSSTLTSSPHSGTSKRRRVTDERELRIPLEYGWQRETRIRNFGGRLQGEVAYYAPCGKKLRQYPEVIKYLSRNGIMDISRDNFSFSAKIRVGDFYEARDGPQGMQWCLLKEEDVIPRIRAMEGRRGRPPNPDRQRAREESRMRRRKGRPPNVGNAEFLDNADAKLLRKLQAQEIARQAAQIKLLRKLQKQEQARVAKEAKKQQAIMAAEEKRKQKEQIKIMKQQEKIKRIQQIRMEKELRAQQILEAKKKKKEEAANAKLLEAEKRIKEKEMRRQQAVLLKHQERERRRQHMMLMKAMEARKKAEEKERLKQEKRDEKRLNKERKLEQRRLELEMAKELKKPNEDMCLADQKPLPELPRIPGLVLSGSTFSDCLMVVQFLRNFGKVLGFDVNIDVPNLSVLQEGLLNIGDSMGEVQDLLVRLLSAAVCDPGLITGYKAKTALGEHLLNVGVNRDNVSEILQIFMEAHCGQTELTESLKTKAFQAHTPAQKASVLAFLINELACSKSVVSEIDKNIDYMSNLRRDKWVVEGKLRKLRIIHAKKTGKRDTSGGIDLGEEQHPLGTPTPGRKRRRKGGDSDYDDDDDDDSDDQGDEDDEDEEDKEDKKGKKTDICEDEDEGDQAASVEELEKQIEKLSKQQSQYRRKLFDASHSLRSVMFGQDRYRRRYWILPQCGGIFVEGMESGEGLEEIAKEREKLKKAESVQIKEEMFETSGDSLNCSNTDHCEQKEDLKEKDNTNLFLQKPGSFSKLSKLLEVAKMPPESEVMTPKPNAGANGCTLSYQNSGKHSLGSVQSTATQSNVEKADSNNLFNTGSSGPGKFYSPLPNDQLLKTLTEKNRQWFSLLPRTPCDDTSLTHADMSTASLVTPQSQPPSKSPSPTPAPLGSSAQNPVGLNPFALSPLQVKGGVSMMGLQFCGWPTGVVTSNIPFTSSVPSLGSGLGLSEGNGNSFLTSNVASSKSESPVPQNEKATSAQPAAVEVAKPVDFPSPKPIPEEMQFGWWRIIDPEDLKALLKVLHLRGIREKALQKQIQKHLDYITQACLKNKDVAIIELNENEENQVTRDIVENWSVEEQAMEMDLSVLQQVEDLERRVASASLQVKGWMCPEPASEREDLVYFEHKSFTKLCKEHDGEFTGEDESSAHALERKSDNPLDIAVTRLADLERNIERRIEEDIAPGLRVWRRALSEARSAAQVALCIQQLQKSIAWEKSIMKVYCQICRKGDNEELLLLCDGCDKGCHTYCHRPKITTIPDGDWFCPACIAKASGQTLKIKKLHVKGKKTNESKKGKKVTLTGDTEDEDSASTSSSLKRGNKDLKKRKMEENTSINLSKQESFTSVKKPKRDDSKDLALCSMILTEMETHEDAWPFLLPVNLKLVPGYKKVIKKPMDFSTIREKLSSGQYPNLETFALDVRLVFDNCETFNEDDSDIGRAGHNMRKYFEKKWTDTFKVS
Sequence of Bromodomain adjacent to zinc finger domain protein 2A (Homo sapiens) (Q9UIF9 whole entry, the tested form may be a part): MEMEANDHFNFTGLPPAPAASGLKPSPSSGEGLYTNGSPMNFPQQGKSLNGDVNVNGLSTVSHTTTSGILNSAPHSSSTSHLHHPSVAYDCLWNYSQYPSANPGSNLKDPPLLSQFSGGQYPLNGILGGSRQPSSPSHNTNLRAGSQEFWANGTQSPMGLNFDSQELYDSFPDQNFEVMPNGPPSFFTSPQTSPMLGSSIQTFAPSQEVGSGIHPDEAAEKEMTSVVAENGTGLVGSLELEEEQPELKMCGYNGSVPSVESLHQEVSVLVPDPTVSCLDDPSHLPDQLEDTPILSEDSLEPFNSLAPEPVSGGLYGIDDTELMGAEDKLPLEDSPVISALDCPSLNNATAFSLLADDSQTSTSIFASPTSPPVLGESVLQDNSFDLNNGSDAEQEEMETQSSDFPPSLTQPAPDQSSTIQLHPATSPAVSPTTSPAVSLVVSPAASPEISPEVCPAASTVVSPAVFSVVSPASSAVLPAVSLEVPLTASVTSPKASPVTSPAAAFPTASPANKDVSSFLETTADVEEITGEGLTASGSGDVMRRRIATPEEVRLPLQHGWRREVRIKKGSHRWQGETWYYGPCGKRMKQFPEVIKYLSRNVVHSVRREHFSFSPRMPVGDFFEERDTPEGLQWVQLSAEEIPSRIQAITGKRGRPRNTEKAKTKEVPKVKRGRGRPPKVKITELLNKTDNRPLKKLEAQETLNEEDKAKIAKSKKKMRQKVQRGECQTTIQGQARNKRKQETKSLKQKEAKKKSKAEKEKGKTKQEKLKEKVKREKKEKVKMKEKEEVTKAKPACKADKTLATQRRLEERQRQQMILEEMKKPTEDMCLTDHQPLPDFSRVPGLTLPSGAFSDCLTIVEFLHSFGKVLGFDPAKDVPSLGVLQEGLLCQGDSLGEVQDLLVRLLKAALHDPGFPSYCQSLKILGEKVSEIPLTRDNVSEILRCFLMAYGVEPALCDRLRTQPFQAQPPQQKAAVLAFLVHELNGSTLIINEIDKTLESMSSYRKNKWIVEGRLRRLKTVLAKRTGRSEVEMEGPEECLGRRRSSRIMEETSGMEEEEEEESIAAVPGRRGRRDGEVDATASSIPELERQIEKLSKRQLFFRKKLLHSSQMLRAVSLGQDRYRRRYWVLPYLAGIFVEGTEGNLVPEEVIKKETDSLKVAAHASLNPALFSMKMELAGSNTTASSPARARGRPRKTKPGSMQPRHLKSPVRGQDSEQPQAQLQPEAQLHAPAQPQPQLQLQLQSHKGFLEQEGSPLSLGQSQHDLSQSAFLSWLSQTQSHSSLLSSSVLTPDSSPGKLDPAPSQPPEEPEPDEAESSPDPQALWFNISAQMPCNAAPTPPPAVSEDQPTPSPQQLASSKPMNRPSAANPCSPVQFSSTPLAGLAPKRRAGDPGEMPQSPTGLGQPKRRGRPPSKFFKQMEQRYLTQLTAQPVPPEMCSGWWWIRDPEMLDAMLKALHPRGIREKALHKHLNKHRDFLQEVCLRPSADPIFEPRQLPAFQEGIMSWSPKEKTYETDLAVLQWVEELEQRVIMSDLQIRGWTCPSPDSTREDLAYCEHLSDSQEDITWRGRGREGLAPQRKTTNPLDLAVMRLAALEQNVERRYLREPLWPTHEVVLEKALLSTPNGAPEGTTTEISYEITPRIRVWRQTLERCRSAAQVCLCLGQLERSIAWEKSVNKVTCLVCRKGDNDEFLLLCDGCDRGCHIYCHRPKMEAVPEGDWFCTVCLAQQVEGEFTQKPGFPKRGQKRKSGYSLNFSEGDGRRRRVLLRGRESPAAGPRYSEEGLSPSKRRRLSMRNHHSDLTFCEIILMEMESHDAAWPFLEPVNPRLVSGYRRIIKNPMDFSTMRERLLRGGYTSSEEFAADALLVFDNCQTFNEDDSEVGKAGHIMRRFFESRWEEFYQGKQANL
Sequence of Bromodomain-containing protein 3 (Homo sapiens) (Q15059 2-726 limits assumed): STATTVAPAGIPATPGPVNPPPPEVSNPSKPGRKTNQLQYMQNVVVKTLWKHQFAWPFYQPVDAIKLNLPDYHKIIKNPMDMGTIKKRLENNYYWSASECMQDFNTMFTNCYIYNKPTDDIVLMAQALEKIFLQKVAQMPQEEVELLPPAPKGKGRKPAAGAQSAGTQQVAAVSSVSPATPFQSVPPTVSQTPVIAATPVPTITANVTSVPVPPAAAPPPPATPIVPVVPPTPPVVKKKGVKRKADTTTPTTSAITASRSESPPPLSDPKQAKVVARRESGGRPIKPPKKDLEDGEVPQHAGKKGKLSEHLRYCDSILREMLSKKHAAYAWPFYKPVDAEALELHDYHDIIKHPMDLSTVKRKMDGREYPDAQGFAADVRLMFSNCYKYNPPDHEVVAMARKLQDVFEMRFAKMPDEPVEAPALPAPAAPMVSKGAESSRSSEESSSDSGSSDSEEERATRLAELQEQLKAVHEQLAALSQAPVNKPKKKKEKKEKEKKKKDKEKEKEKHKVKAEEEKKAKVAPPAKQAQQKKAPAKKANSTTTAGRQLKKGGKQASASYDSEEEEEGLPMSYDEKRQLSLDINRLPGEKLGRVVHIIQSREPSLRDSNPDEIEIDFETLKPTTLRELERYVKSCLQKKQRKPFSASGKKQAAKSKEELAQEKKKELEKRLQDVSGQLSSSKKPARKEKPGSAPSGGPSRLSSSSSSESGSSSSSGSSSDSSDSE

For `CC(=O)c1cc(-c2cccc3nccn23)c2cc(N3CCOCC3)ccn12`, the ΔTm came out at 2 °C in assay [1]; 1.8 °C in assay [4]; 1.3 °C in assay [5]; 1.1 °C in assay [8]; 5.6 °C in [9]. The outcome in assay [2], in [7] and in assay [11] was Active. The compound further showed an IC50 in [3] of over 100 µM. In [6], this compound showed a Kd of 68 nM. Besides, the inhibition entry in assay [10] is “Dose-dependent effect”.
